Experimental data reported in US12252524B2, “GIP/GLP1 co-agonist compounds” (Eli Lilly and Company, priority 2018, dated 2025).
Numbered stars: 1 amine (or outer) side, 2 acyl side, 3 side chain; on linkers, the order of the positions; unused ones are H or OH. Square brackets hold non-standard residues; d marks the D form. Side chains are listed from the residue outwards. Peptide text beside a SMILES is read from it. * marks the point of attachment. C18 diacid = O=C(O)CCCCCCCCCCCCCCCCC(=O)*; αMePhe(2-F) = C[C@](N)(Cc1ccccc1F)C(=O)O; γGlu = O=C(O)[C@H](CCC(=O)[*:2])N[*:1]; αMeY = C[C@](N)(Cc1ccc(O)cc1)C(=O)O; αMeF = C[C@](N)(Cc1ccccc1)C(=O)O; 4Pal = N[C@@H](Cc1ccncc1)C(=O)O; αMeL = CC(C)C[C@](C)(N)C(=O)O; Orn = NCCC[C@H](N)C(=O)O; Dab = NCC[C@H](N)C(=O)O; AEEA = NCCOCCOCC(=O)O; Aib = CC(C)(N)C(=O)O

What was measured:
human GIP receptor = molecular target: T1, human GIP receptor (Homo sapiens, UniProt P48546); assay: [125I]-GIP binding (SPA), human GIP receptor; conditions: read-out: hGIPR Ki, nM (SEM, n)
T1 construct: expressed in transfected cells; crude membranes
T1 sequence (P48546 22-466): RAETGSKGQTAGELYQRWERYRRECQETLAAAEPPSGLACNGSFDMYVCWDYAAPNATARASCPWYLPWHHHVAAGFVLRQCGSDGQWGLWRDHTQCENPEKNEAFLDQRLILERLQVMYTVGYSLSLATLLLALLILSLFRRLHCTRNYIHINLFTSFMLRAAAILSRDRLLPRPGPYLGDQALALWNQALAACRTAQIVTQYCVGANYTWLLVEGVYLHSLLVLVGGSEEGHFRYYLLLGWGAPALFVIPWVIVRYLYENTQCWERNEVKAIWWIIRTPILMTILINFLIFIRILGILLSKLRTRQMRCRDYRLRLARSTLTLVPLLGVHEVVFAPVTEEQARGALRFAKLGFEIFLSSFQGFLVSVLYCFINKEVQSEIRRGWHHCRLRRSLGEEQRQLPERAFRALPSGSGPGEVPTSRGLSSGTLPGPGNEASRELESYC

human Gcg receptor = molecular target: T2, human Gcg receptor (Homo sapiens, UniProt P47871); assay: [125I]-Glucagon binding (SPA), human Gcg receptor; conditions: read-out: hGLcgR Ki, nM (SEM, n)
T2 construct: expressed in transfected cells; crude membranes
T2 sequence (P47871 26-477): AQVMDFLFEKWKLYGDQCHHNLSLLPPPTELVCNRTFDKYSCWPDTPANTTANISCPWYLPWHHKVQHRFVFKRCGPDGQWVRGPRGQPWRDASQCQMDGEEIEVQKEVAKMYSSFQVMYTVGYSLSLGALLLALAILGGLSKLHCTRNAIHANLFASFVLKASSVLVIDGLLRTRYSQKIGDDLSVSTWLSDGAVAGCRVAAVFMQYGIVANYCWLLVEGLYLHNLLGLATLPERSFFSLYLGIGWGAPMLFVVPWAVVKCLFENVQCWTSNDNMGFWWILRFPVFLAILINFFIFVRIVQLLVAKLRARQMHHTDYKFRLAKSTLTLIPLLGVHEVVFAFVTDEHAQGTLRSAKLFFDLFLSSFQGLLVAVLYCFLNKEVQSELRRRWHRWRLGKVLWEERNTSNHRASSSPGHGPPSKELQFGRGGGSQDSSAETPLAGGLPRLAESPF
Procedure, shortened: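 Crude membranes from cells expressing the receptor, prepared by hypotonic lysis in 50 mM Tris HCl pH 7.5 with protease inhibitors, homogenization and differential centrifugation, were used in a WGA-bead SPA. Binding buffer: 25 mM HEPES pH 7.4, 2.5 mM CaCl2, 1 mM MgCl2, bacitracin, Tween-20.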

[1] = molecular target: T3, gastric inhibitory peptide receptor (GIPR) (Homo sapiens, UniProt P48546); assay: cAMP pharmacological functional assay in presence of casein, hGIPR; assay type: cell-based; conditions: HEK293 cells expressing hGIPR, 0.1% Casein, geometric mean; read-out: hGIPR cAMP Rel EC50 nM (SEM, n)
T3 sequence (P48546 22-466): T1 sequence (P48546 22-466)

human GLP-1R = human GLP-1R (Homo sapiens, UniProt P43220); assay: [125I]-GLP-1 binding (SPA), human GLP-1 receptor; design: expressed in transfected cells; crude membranes; conditions: read-out: hGLP1R Ki, (nM) (SEM, n)
Sequence of human GLP-1R (P43220 24-463): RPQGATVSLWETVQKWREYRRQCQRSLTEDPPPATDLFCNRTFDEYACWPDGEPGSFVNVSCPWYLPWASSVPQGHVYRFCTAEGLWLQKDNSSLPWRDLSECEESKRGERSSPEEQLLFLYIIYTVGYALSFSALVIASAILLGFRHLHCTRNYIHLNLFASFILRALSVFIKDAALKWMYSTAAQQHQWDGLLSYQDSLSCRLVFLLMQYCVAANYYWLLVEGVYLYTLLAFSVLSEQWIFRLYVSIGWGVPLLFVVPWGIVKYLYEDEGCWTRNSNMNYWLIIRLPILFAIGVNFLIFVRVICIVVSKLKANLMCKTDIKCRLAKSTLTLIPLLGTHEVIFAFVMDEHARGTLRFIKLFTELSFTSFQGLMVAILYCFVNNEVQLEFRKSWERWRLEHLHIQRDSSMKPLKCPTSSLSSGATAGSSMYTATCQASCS
Procedure, shortened: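 Ki values are geometric means with SEM over independent replicates on different days, derived from IC50s fitted by four-parameter nonlinear regression. The assay used crude cell membranes in HEPES buffer, pH 7.4, containing CaCl2, MgCl2, bacitracin and TWEEN-20.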

[2] = molecular target: human GLP-1 receptor (GLP-1R) (Homo sapiens, UniProt P43220); assay: cAMP pharmacological functional assay in presence of casein, hGLP-1R; assay type: cell-based; conditions: HEK293 cells expressing hGLP-1R, 0.1% Casein, geometric mean; read-out: hGLP1R cAMP Rel EC50 nM (SEM, n)
Sequence of human GLP-1 receptor (GLP-1R) (P43220 24-463): as above

Compound | Ki (human GIP receptor) [nM] | Ki (human Gcg receptor) [nM] | EC50 [1] [nM] | Ki (human GLP-1R) [nM] | EC50 [2] [nM]
CC[C@H](C)[C@H](NC(=O)[C@H](CC(C)C)NC(=O)[C@H](Cc1ccc(O)cc1)NC(=O)[C@@H](CCC(=O)O)NC(=O)[C@@H](NC(=O)[C@H](Cc1ccccc1)NC(=O)[C@H](CCC(=O)O)NC(=O)C(C)(C)NC(=O)[C@H](CCC(N)=O)NC(=O)[C@H](C)NC(=O)[C@H](CCCCNC(=O)COCCOCCNC(=O)COCCOCCNC(=O)CC[C@H](NC(=O)CCCCCCCCCCCCCCCCC(=O)O)C(=O)O)NC(=O)[C@H](CCCN)NC(=O)[C@H](CC(=O)O)NC(=O)[C@H](CC(C)C)NC(=O)[C@](C)(CC(C)C)NC(=O)[C@@H](NC(=O)[C@H](CO)NC(=O)[C@H](Cc1ccncc1)NC(=O)[C@H](CC(=O)O)NC(=O)[C@H](CO)NC(=O)[C@@H](NC(=O)[C@](C)(Cc1ccccc1F)NC(=O)[C@@H](NC(=O)CNC(=O)[C@H](CCC(=O)O)NC(=O)C(C)(C)NC(=O)[C@@H](N)Cc1ccc(O)cc1)[C@@H](C)O)[C@@H](C)O)[C@@H](C)CC)[C@@H](C)CC)C(=O)N[C@@H](CCC(=O)O)C(=O)NCC(=O)NCC(=O)N1CCC[C@H]1C(=O)N[C@@H](CO)C(=O)N[C@@H](CO)C(=O)NCC(=O)N[C@@H](C)C(=O)N1CCC[C@H]1C(=O)N1CCC[C@H]1C(=O)N1CCC[C@H]1C(=O)N[C@@H](CO)C(N)=O [Example 232] (H-Y[Aib]EGT[αMePhe(2-F)]TSD[4Pal]SI[αMeL]LD[Orn]K([AEEA-AEEA-γGlu-C18 diacid])AQ[Aib]EFI[dE]YLIEGGPSSGAPPPS-NH2) | 0.0544 | > 1150 | 0.027 | 5.62 | 0.0724
CC[C@H](C)[C@H](NC(=O)[C@H](CC(C)C)NC(=O)[C@H](Cc1ccc(O)cc1)NC(=O)[C@@H](CCC(=O)O)NC(=O)[C@@H](NC(=O)[C@H](Cc1ccccc1)NC(=O)[C@H](CCC(=O)O)NC(=O)C(C)(C)NC(=O)[C@H](CCC(N)=O)NC(=O)[C@H](C)NC(=O)[C@H](CCCCNC(=O)COCCOCCNC(=O)COCCOCCNC(=O)CC[C@H](NC(=O)CCCCCCCCCCCCCCCCC(=O)O)C(=O)O)NC(=O)[C@H](CCN)NC(=O)[C@H](CC(=O)O)NC(=O)[C@H](CC(C)C)NC(=O)[C@](C)(CC(C)C)NC(=O)[C@@H](NC(=O)[C@H](CO)NC(=O)[C@H](Cc1ccncc1)NC(=O)[C@H](CC(=O)O)NC(=O)[C@H](CO)NC(=O)[C@@H](NC(=O)[C@](C)(Cc1ccccc1F)NC(=O)[C@@H](NC(=O)CNC(=O)[C@H](CCC(=O)O)NC(=O)C(C)(C)NC(=O)[C@@H](N)Cc1ccc(O)cc1)[C@@H](C)O)[C@@H](C)O)[C@@H](C)CC)[C@@H](C)CC)C(=O)N[C@@H](CCC(=O)O)C(=O)NCC(=O)NCC(=O)N1CCC[C@H]1C(=O)N[C@@H](CO)C(=O)N[C@@H](CO)C(=O)NCC(=O)N[C@@H](C)C(=O)N1CCC[C@H]1C(=O)N1CCC[C@H]1C(=O)N1CCC[C@H]1C(=O)N[C@@H](CO)C(N)=O [Example 233] (H-Y[Aib]EGT[αMePhe(2-F)]TSD[4Pal]SI[αMeL]LD[Dab]K([AEEA-AEEA-γGlu-C18 diacid])AQ[Aib]EFI[dE]YLIEGGPSSGAPPPS-NH2) | 0.0445 | > 1150 | 0.0288 | 5.99 | 0.0549
CC[C@H](C)[C@H](NC(=O)[C@H](CC(C)C)NC(=O)[C@H](Cc1ccc(O)cc1)NC(=O)[C@@H](CCC(=O)O)NC(=O)[C@@H](NC(=O)[C@H](Cc1ccccc1)NC(=O)[C@H](CCC(=O)O)NC(=O)C(C)(C)NC(=O)[C@H](CCC(N)=O)NC(=O)[C@H](C)NC(=O)[C@H](CCCCNC(=O)COCCOCCNC(=O)COCCOCCNC(=O)CC[C@H](NC(=O)CCCCCCCCCCCCCCCCC(=O)O)C(=O)O)NC(=O)[C@H](CCN)NC(=O)[C@H](CC(=O)O)NC(=O)[C@H](CC(C)C)NC(=O)[C@H](CC(C)C)NC(=O)[C@@H](NC(=O)[C@H](CO)NC(=O)[C@H](Cc1ccncc1)NC(=O)[C@H](CC(=O)O)NC(=O)[C@H](CO)NC(=O)[C@@H](NC(=O)[C@](C)(Cc1ccccc1F)NC(=O)[C@@H](NC(=O)CNC(=O)[C@H](CCC(=O)O)NC(=O)C(C)(C)NC(=O)[C@@H](N)Cc1ccc(O)cc1)[C@@H](C)O)[C@@H](C)O)[C@@H](C)CC)[C@@H](C)CC)C(=O)N[C@@H](CCC(=O)O)C(=O)NCC(=O)NCC(=O)N1CCC[C@H]1C(=O)N[C@@H](CO)C(=O)N[C@@H](CO)C(=O)NCC(=O)N[C@@H](C)C(=O)N1CCC[C@H]1C(=O)N1CCC[C@H]1C(=O)N1CCC[C@H]1C(=O)N[C@@H](CO)C(N)=O [Example 234] (H-Y[Aib]EGT[αMePhe(2-F)]TSD[4Pal]SILLD[Dab]K([AEEA-AEEA-γGlu-C18 diacid])AQ[Aib]EFI[dE]YLIEGGPSSGAPPPS-NH2) | 0.0563 | > 1100 | 0.0372 | 10.9 | 0.0926
CC[C@H](C)[C@H](NC(=O)[C@H](CC(C)C)NC(=O)[C@H](Cc1ccc(O)cc1)NC(=O)[C@@H](CCC(=O)O)NC(=O)[C@@H](NC(=O)[C@H](Cc1ccccc1)NC(=O)[C@H](CCC(=O)O)NC(=O)C(C)(C)NC(=O)[C@H](CCC(N)=O)NC(=O)[C@H](C)NC(=O)[C@H](CCCCNC(=O)COCCOCCNC(=O)COCCOCCNC(=O)CC[C@H](NC(=O)CCCCCCCCCCCCCCCCC(=O)O)C(=O)O)NC(=O)[C@H](CCN)NC(=O)[C@H](CC(=O)O)NC(=O)[C@H](CC(C)C)NC(=O)[C@](C)(CC(C)C)NC(=O)[C@@H](NC(=O)[C@H](CO)NC(=O)[C@H](Cc1ccncc1)NC(=O)[C@H](CC(=O)O)NC(=O)[C@H](CO)NC(=O)[C@@H](NC(=O)[C@](C)(Cc1ccccc1)NC(=O)[C@@H](NC(=O)CNC(=O)[C@H](CCC(=O)O)NC(=O)C(C)(C)NC(=O)[C@@H](N)Cc1ccc(O)cc1)[C@@H](C)O)[C@@H](C)O)[C@@H](C)CC)[C@@H](C)CC)C(=O)N[C@@H](CCC(=O)O)C(=O)NCC(=O)NCC(=O)N1CCC[C@H]1C(=O)N[C@@H](CO)C(=O)N[C@@H](CO)C(=O)NCC(=O)N[C@@H](C)C(=O)N1CCC[C@H]1C(=O)N1CCC[C@H]1C(=O)N1CCC[C@H]1C(=O)N[C@@H](CO)C(N)=O [Example 235] (H-Y[Aib]EGT[αMeF]TSD[4Pal]SI[αMeL]LD[Dab]K([AEEA-AEEA-γGlu-C18 diacid])AQ[Aib]EFI[dE]YLIEGGPSSGAPPPS-NH2) | 0.0581 | > 1200 | 0.0372 | 7.65 | 0.136
CC[C@H](C)[C@H](NC(=O)[C@H](CC(C)C)NC(=O)[C@](C)(Cc1ccc(O)cc1)NC(=O)[C@@H](CCC(=O)O)NC(=O)[C@@H](NC(=O)[C@H](Cc1ccccc1)NC(=O)[C@H](CCC(=O)O)NC(=O)C(C)(C)NC(=O)[C@H](CCC(N)=O)NC(=O)[C@H](C)NC(=O)[C@H](CCCCNC(=O)COCCOCCNC(=O)COCCOCCNC(=O)CC[C@H](NC(=O)CCCCCCCCCCCCCCCCC(=O)O)C(=O)O)NC(=O)[C@H](CCCN)NC(=O)[C@H](CC(=O)O)NC(=O)[C@H](CC(C)C)NC(=O)[C@](C)(CC(C)C)NC(=O)[C@@H](NC(=O)[C@H](CO)NC(=O)[C@H](Cc1ccc(O)cc1)NC(=O)[C@H](CC(=O)O)NC(=O)[C@H](CO)NC(=O)[C@@H](NC(=O)[C@](C)(Cc1ccccc1F)NC(=O)[C@@H](NC(=O)CNC(=O)[C@H](CCC(=O)O)NC(=O)C(C)(C)NC(=O)[C@@H](N)Cc1ccc(O)cc1)[C@@H](C)O)[C@@H](C)O)[C@@H](C)CC)[C@@H](C)CC)C(=O)N[C@@H](CCC(=O)O)C(=O)NCC(=O)NCC(=O)N1CCC[C@H]1C(=O)N[C@@H](CO)C(=O)N[C@@H](CO)C(=O)NCC(=O)N[C@@H](C)C(=O)N1CCC[C@H]1C(=O)N1CCC[C@H]1C(=O)N1CCC[C@H]1C(=O)N[C@@H](CO)C(N)=O [Example 236] (H-Y[Aib]EGT[αMePhe(2-F)]TSDYSI[αMeL]LD[Orn]K([AEEA-AEEA-γGlu-C18 diacid])AQ[Aib]EFI[dE][αMeY]LIEGGPSSGAPPPS-NH2) | 0.0425 | 200 | 0.0249 | 1.05 | 0.0231
